Data as given in ChEMBL document CHEMBL5126517, “Structure-Activity Relationship in the Leucettine Family of Kinase Inhibitors” (J Med Chem, 2022).

Target: Glycogen synthase kinase-3 (Sus scrofa, UniProt B2LUN4+I6LNT8)
Assay: Inhibition of porcine brain GSK-3alpha/beta using YRRAAVPPSPSLSRHSSPHQpSEDEEE as substrate incubated for 30 mins in presence of ATP by scintillation counting method
Format: tissue-based
Details: not given

Structure (SMILES)	IC50 [nM]
O=C1NC(Nc2ccccn2)=N/C1=C\c1ccc2c(c1)OCO2	1700
O=C1NC(N2CCN(c3ccc(F)cc3)CC2)=N/C1=C\c1ccc2c(c1)OCCO2	8200
CN1CCN(c2ccc(NC3=N/C(=C\c4ccc5c(c4)OCO5)C(=O)N3)cc2)CC1	120

Target: Dual specificity protein kinase CLK3 (Mus musculus, UniProt O35492)
Sequence (O35492 whole entry, the tested form may be a part): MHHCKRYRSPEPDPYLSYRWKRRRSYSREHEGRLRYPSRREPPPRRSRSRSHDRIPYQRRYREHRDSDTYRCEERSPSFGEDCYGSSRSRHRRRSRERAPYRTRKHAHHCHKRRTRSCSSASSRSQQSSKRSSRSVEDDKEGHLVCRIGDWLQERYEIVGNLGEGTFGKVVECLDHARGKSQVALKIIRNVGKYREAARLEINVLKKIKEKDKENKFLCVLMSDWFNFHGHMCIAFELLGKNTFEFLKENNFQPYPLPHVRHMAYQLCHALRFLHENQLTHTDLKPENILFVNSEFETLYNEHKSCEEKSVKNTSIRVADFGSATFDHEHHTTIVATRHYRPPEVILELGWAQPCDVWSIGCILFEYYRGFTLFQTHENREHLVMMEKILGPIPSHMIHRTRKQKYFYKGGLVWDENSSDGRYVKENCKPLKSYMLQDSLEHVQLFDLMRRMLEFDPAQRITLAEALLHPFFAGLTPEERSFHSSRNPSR
Assay: Inhibition of GST-fused mouse recombinant CLK3 expressed in Escherichia coli using GRSRSRSRSRSR peptide as substrate incubated for 30 mins in presence of ATP by scintillation counting method
Details: not given

Structure (SMILES)	IC50 [nM]
O=C1NC(Nc2ccccn2)=N/C1=C\c1ccc2c(c1)OCO2	510
O=C1NC(N2CCN(c3ccc(F)cc3)CC2)=N/C1=C\c1ccc2c(c1)OCCO2	> 10000
CN1CCN(c2ccc(NC3=N/C(=C\c4ccc5c(c4)OCO5)C(=O)N3)cc2)CC1	800

Target: T1, Dual specificity tyrosine-phosphorylation-regulated kinase 3 (Homo sapiens, UniProt O43781)
T1 sequence (O43781 whole entry): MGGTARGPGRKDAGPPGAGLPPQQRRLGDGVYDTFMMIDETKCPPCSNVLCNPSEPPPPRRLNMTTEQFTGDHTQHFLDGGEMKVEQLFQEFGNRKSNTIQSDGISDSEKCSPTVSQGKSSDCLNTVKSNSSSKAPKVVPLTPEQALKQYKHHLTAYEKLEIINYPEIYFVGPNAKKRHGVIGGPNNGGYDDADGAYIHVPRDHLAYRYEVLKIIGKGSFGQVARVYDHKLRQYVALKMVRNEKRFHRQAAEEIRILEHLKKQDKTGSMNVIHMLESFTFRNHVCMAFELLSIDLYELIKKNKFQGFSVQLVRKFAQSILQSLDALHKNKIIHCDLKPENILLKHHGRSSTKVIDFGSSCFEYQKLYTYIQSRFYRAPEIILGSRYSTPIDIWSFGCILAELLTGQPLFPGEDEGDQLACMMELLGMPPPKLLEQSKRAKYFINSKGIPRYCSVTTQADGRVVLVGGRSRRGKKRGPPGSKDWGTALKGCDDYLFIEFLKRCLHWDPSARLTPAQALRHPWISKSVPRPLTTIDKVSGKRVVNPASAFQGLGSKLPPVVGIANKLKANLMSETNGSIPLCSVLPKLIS
Assay: Inhibition of GST-fused human recombinant DYRK3 expressed in Escherichia coli using GRSRSRSRSRSR peptide as substrate incubated for 30 mins in presence of ATP by scintillation counting method
Details: not given

Structure (SMILES)	IC50 [nM]
O=C1NC(Nc2ccccn2)=N/C1=C\c1ccc2c(c1)OCO2	310
O=C1NC(N2CCN(c3ccc(F)cc3)CC2)=N/C1=C\c1ccc2c(c1)OCCO2	2100
CN1CCN(c2ccc(NC3=N/C(=C\c4ccc5c(c4)OCO5)C(=O)N3)cc2)CC1	25

Test system: HT-22
Assay: Modulation of CLK1 pre-mRNA splicing in mouse HT-22 cells assessed as inclusion of CLK1 exon 4 by measuring change in threshold cycle at 10 uM measured after 4 hrs by real time PCR analysis
Format: cell-based
Details: filed as modulator

Structure (SMILES)	deltaCT
CN1CCN(c2ccc(NC3=N/C(=C\c4ccc5c(c4)OCO5)C(=O)N3)cc2)CC1	7.48

Test system: not listed separately
Assay: Neurotoxicity against mouse HT-22 cells assessed as cell survival at 20 uM treated for 24 hrs by MTS assay
Format: toxicity, cell-based
Details: ht-22, 24 h

Structure (SMILES)	Activity
CN1CCN(c2ccc(NC3=N/C(=C\c4ccc5c(c4)OCO5)C(=O)N3)cc2)CC1	Non-Toxic

Target: Dual specificity tyrosine-phosphorylation-regulated kinase 1B (Homo sapiens, UniProt Q9Y463)
Sequence (Q9Y463 whole entry): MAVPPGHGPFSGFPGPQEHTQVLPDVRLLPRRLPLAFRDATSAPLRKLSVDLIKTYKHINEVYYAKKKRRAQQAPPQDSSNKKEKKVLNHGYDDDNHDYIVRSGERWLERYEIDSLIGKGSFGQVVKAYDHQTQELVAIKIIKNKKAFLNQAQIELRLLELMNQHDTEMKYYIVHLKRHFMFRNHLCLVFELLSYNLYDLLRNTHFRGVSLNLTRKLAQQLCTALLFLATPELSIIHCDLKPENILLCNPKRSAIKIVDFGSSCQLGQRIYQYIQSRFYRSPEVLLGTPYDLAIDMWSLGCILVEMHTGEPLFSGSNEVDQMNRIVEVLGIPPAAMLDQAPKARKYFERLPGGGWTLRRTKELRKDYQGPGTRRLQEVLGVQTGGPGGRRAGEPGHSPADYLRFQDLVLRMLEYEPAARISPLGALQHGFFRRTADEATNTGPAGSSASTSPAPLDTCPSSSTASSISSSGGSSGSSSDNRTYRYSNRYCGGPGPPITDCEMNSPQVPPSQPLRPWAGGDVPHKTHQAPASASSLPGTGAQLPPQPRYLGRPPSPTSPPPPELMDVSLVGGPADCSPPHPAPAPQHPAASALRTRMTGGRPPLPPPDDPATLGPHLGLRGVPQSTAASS
Details: not given

Structure (SMILES)	IC50 [nM]
O=C1NC(Nc2ccccn2)=N/C1=C\c1ccc2c(c1)OCO2	200
O=C1NC(N2CCN(c3ccc(F)cc3)CC2)=N/C1=C\c1ccc2c(c1)OCCO2	≥ 10000

Target: Serine/threonine-protein kinase pim-1 (Homo sapiens, UniProt P11309)
Sequence (P11309 whole entry): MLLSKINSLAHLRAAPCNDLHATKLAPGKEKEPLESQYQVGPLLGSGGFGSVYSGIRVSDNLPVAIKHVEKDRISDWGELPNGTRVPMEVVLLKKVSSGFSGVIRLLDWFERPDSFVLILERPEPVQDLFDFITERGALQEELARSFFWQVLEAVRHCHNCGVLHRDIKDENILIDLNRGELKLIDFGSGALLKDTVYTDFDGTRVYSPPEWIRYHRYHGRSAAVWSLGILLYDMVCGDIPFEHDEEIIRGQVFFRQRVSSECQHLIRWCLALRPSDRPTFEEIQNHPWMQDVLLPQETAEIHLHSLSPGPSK
Assay: Inhibition of human recombinant Pim1 expressed in Escherichia coli using histone H1 as substrate incubated for 30 mins in presence of ATP by scintillation counting method
Details: not given

Structure (SMILES)	IC50 [nM]
O=C1NC(Nc2ccccn2)=N/C1=C\c1ccc2c(c1)OCO2	480
O=C1NC(N2CCN(c3ccc(F)cc3)CC2)=N/C1=C\c1ccc2c(c1)OCCO2	9300
CN1CCN(c2ccc(NC3=N/C(=C\c4ccc5c(c4)OCO5)C(=O)N3)cc2)CC1	1100

Target: Dual specificity protein kinase CLK1 (Mus musculus, UniProt P22518)
Sequence (P22518 whole entry, the tested form may be a part): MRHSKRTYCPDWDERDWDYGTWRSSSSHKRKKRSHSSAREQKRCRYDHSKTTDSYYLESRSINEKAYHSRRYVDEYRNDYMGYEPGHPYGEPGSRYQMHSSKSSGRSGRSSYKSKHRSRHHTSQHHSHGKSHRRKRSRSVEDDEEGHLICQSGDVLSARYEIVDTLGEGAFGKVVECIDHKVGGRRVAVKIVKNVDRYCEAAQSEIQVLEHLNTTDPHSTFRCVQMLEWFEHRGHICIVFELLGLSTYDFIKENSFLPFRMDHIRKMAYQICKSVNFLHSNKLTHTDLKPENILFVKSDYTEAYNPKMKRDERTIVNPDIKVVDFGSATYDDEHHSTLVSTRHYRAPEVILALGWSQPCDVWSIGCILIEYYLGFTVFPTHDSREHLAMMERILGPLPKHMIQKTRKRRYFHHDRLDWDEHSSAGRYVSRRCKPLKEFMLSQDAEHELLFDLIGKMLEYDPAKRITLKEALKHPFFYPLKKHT
Assay: Inhibition of GST-fused mouse recombinant CLK1 expressed in Escherichia coli using GRSRSRSRSRSR peptide as substrate incubated for 30 mins in presence of ATP by scintillation counting method
Details: not given

Structure (SMILES)	IC50 [nM]
O=C1NC(Nc2ccccn2)=N/C1=C\c1ccc2c(c1)OCO2	72
O=C1NC(N2CCN(c3ccc(F)cc3)CC2)=N/C1=C\c1ccc2c(c1)OCCO2	2100
CN1CCN(c2ccc(NC3=N/C(=C\c4ccc5c(c4)OCO5)C(=O)N3)cc2)CC1	23

Target: T2, Dual specificity tyrosine-phosphorylation-regulated kinase 2 (Homo sapiens, UniProt Q92630)
T2 sequence (Q92630 whole entry): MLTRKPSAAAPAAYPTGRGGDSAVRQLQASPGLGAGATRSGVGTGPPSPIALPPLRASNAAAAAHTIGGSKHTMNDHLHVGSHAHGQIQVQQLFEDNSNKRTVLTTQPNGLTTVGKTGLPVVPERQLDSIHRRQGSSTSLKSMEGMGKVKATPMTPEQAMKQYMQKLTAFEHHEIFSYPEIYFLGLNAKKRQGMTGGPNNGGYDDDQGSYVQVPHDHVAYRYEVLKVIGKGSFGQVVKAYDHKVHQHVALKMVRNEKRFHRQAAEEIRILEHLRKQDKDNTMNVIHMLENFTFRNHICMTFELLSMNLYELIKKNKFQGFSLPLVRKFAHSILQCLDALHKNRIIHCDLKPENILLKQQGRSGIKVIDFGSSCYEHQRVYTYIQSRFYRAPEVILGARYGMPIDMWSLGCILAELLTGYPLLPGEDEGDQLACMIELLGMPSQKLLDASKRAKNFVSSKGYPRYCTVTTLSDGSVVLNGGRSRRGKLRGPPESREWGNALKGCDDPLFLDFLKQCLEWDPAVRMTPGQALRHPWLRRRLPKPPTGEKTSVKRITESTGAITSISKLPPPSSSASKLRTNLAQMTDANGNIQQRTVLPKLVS
Assay: Inhibition of GST-fused human recombinant DYRK2 expressed in Escherichia coli using GRSRSRSRSRSR peptide as substrate incubated for 30 mins in presence of ATP by scintillation counting method
Details: not given

Structure (SMILES)	IC50 [nM]
O=C1NC(Nc2ccccn2)=N/C1=C\c1ccc2c(c1)OCO2	33
O=C1NC(N2CCN(c3ccc(F)cc3)CC2)=N/C1=C\c1ccc2c(c1)OCCO2	2200
CN1CCN(c2ccc(NC3=N/C(=C\c4ccc5c(c4)OCO5)C(=O)N3)cc2)CC1	50

Target: Dual specificity protein kinase CLK4 (Mus musculus, UniProt O35493)
Sequence (O35493 whole entry, the tested form may be a part): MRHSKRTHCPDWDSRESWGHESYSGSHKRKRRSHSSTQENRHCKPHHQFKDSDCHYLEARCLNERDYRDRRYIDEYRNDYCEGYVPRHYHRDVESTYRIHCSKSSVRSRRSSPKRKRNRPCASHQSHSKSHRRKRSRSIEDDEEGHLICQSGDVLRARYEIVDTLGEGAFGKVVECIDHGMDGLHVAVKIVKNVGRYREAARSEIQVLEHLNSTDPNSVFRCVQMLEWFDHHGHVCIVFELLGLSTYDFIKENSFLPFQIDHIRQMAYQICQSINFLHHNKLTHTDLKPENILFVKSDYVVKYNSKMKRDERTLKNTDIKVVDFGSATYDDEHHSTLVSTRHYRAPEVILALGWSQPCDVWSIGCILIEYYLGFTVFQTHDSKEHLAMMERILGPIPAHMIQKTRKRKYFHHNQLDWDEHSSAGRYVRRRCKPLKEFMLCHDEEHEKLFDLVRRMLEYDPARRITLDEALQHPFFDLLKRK
Assay: Inhibition of GST-fused mouse recombinant CLK4 expressed in Escherichia coli using GRSRSRSRSRSR peptide as substrate incubated for 30 mins in presence of ATP by scintillation counting method
Details: not given

Structure (SMILES)	IC50 [nM]
O=C1NC(Nc2ccccn2)=N/C1=C\c1ccc2c(c1)OCO2	53
O=C1NC(N2CCN(c3ccc(F)cc3)CC2)=N/C1=C\c1ccc2c(c1)OCCO2	2300
CN1CCN(c2ccc(NC3=N/C(=C\c4ccc5c(c4)OCO5)C(=O)N3)cc2)CC1	16

Target: Casein kinase 2 (Homo sapiens, UniProt P67870+P68400+P19784+Q8NEV1)
Assay: Inhibition of human recombinant CK2 using RRRDDDSDDD peptide as substrate incubated for 30 mins in presence of ATP by scintillation counting method
Format: protein assay
Details: not given

Structure (SMILES)	IC50 [nM]
O=C1NC(Nc2ccccn2)=N/C1=C\c1ccc2c(c1)OCO2	130
CN1CCN(c2ccc(NC3=N/C(=C\c4ccc5c(c4)OCO5)C(=O)N3)cc2)CC1	1200

Test system: HT-22
Assay: Neuroprotective activity against glutamate-induced cell death in mouse HT-22 cells treated for 24 hrs by MTS assay
Format: functional, cell-based
Details: HT-22, 24 h

Structure (SMILES)	EC50 [nM]
O=C1NC(Nc2ccccn2)=N/C1=C\c1ccc2c(c1)OCO2	> 20000
O=C1NC(N2CCN(c3ccc(F)cc3)CC2)=N/C1=C\c1ccc2c(c1)OCCO2	14000
CN1CCN(c2ccc(NC3=N/C(=C\c4ccc5c(c4)OCO5)C(=O)N3)cc2)CC1	> 20000

Target: Cannabinoid receptor 1 (Homo sapiens, UniProt P21554)
Sequence (P21554 whole entry): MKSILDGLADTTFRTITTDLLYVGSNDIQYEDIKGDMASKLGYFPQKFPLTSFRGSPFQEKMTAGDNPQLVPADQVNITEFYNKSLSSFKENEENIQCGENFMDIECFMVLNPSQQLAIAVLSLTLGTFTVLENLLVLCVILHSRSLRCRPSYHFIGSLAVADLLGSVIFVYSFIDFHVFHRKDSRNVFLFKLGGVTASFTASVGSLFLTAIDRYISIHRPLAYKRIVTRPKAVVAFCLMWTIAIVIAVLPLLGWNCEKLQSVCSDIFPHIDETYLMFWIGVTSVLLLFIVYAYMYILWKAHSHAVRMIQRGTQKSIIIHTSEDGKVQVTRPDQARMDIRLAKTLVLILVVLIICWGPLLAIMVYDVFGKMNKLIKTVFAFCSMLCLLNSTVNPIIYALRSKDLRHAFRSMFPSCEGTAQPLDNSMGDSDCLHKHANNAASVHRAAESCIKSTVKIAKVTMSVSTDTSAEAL
Assay: Antagonist activity at CP-55940-activated CB1 receptor (unknown origin) at 10 uM by beta-arrestin assay relative to control
Format: functional
Parameters: scale not given: the % may be the effect or the level left
Details: not given

Structure (SMILES)	Activity [%]
O=C1NC(Nc2ccccn2)=N/C1=C\c1ccc2c(c1)OCO2	-18.3
O=C1NC(N2CCN(c3ccc(F)cc3)CC2)=N/C1=C\c1ccc2c(c1)OCCO2	16
CN1CCN(c2ccc(NC3=N/C(=C\c4ccc5c(c4)OCO5)C(=O)N3)cc2)CC1	-14.5

Test system: U2OS
Assay: Induction of PI3K/mTor-dependent autophagy in human U2OS cells assessed as number of LC3 foci per cell at 10 uM measured after 4 hrs
Format: cell-based
Details: filed as activator

Structure (SMILES)	Activity
O=C1NC(Nc2ccccn2)=N/C1=C\c1ccc2c(c1)OCO2	5.5
O=C1NC(N2CCN(c3ccc(F)cc3)CC2)=N/C1=C\c1ccc2c(c1)OCCO2	8.1
CN1CCN(c2ccc(NC3=N/C(=C\c4ccc5c(c4)OCO5)C(=O)N3)cc2)CC1	24.9

Test system: not listed separately
Assay: Neurotoxicity against mouse HT-22 cells assessed as cell survival treated for 24 hrs by MTS assay
Format: toxicity, cell-based
Details: not given

Structure (SMILES)	EC50 at 24 h [nM]	IC50 at 24 h [nM]
O=C1NC(Nc2ccccn2)=N/C1=C\c1ccc2c(c1)OCO2	> 20000	
O=C1NC(N2CCN(c3ccc(F)cc3)CC2)=N/C1=C\c1ccc2c(c1)OCCO2		> 20000

Target: Dual specificity protein kinase CLK2 (Mus musculus, UniProt O35491)
Sequence (O35491 whole entry, the tested form may be a part): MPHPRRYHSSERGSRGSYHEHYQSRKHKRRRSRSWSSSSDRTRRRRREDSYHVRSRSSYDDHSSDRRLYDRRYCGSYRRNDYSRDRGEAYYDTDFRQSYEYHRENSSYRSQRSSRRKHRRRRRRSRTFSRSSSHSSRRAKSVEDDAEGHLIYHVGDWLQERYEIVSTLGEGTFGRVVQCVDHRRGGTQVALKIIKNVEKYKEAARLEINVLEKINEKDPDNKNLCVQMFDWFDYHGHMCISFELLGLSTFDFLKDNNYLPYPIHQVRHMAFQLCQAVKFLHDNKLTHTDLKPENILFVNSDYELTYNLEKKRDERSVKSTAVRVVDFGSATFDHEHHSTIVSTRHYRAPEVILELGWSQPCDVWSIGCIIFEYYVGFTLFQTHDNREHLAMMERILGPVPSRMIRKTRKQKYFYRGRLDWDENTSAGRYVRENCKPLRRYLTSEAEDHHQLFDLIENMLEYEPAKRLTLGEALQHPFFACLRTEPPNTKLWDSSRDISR
Assay: Inhibition of mouse recombinant GST-fused CLK2 expressed in Escherichia coli using GRSRSRSRSRSR peptide as substrate incubated for 30 mins in presence of ATP by scintillation counting method
Details: not given

Structure (SMILES)	IC50 [nM]
O=C1NC(Nc2ccccn2)=N/C1=C\c1ccc2c(c1)OCO2	220
O=C1NC(N2CCN(c3ccc(F)cc3)CC2)=N/C1=C\c1ccc2c(c1)OCCO2	10000
CN1CCN(c2ccc(NC3=N/C(=C\c4ccc5c(c4)OCO5)C(=O)N3)cc2)CC1	35

Target: Dual specificity tyrosine-phosphorylation-regulated kinase 1A (Homo sapiens, UniProt Q13627)
Assay: Inhibition of GST-fused human recombinant DYRK1A expressed in Escherichia coli using GRSRSRSRSRSR peptide as substrate incubated for 30 mins in presence of ATP by scintillation counting method
Details: not given

Structure (SMILES)	IC50 [nM]
O=C1NC(Nc2ccccn2)=N/C1=C\c1ccc2c(c1)OCO2	44
O=C1NC(N2CCN(c3ccc(F)cc3)CC2)=N/C1=C\c1ccc2c(c1)OCCO2	3100
CN1CCN(c2ccc(NC3=N/C(=C\c4ccc5c(c4)OCO5)C(=O)N3)cc2)CC1	12
